From article PMC6886544
Where “and” joins values, the source holds several entries; their conditions need not be identical. Equal entries are not always repeated. Where two headings read alike, the source gives them in different places.

Assays:
[1] = Microsomal stability (phase I), mouse; assay type: in vitro ADME; settings: mouse liver microsomes, up to 60 minutes, 37 °C
Method: (§1) Microsomal stability (phase I) assay.
(§2) Metabolic stability under oxidative conditions was measured in liver microsomes from different
(§3) time up to 50 minutes (HLM) or 60 minutes (MLM) at 37 °C. Based on the compound half-life t1/2,
(§4) the in vitro intrinsic clearance CLint was calculated. […]

[2] = Caco-2 assay; assay type: in vitro ADME; settings: human, Caco-2, 5 μM, pH 7.4, 2 hours
Method: For Caco-2 cell assay, a 10 mM DMSO stock of the compound was diluted to a final concentration of 5 μM in HBSS buffer pH 7.4 and incubated for 2 hours at 37 °C and 5% CO2 on a monolayer of Caco-2 cells (ATCC) that had been grown on a transwell membrane (Millipore, Schwalbach, Germany) for 21 days. The compound concentration was measured in the receiver as well as the donor well. Apparent permeability (Papp) from either the apical to basolateral direction or vice versa […]
is the donor drug concentration at t = 0, and dQ/dt is the amount of drug transported within the given time period of 2 hours. […]

[3] = Plasma stability, mouse; assay type: in vitro ADME; settings: 5 µM, 1 h, 37 °C
[4] = tested on: A549 cells (KRAS mutant); test: CellTiter-Glo viability assay, A549; settings: Homo sapiens, A549, 96 h, read-out: KRAS CTG EC50 A549
Method: (§7) A431, HCC827, H1975, A549 and H358 cells were obtained from the American Type Culture Collection (ATCC). A431 cells were cultured in DMEM high glucose media (Life Technologies, Germany), and HCC827, H1975, A549 as well as H358 cells were cultured in RPMI media (Life Technologies, Germany), both containing L-Glutamine and were supplemented with 10% FBS (GE Healthcare, Austria) and 1% PenStrep (Life Technologies, Germany) in a humidified incubator at 37 °C and 5% CO2.
(§8) Cells were seeded at cell numbers that assure linearity and optimal signal intensity (150-300 cells/well, 25 µL) and cultured for 24 hours in serum- and antibiotics-containing media in humidified chambers at 37 °C / 5% CO2. The cells were then treated with EGFR inhibitors in serial
(§9) Afterwards viability studies were carried out using CellTiter-Glo Assay (Promega, USA) that is a homogeneous method of determining the number of viable cells in culture. It is based on quantification of ATP, indicating the presence of metabolically active cells. For these studies, CellTiter-Glo reagent was prepared according to the instructions of the kit and diluted 1:1 with the complete growth medium suitable for the corresponding cell line. Thereon, reagent and assay plates were equilibrated at room temperature for 20 min. Equal volumes of the reagent were added to the volume of culture medium present in each well (25 µL). The plates were mixed for 2 minutes on an orbital shaker to induce cell lysis. The microplates were then incubated at room temperature for 20 minutes for stabilization of the luminescent signal. Following incubation the luminescence was recorded on an EnVision microplate reader (Perkin Elmer) using 500 ms integration time. The data was then analyzed using the Quattro Research Software Suite for EC50-determination. As quality control the Z’-factor was calculated from 16 positive and negative control values. Only assay results showing a Z’-factor ≥0.5 were used for further analysis. All data points were measured in duplicates for each plate and were replicated in at least two plates.

[5] = Plasma protein binding, mouse; assay type: in vitro ADME; settings: equilibrium dialysis, 37 °C
Method: (§5) Assessment of plasma protein binding was measured by equilibrium dialysis by incubating plasma
(§6) based determination of final compound concentrations. […]

[6] = tested on: HCC827 cells (EGFR-delE746_A750); test: CellTiter-Glo viability assay, HCC827; assay type: cell-based; settings: Homo sapiens; HCC827, 96 hours, CellTiter-Glo; read-out: EGFR CTG EC50 HCC827;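 note: luminescence from ATP content as a measure of metabolically active cells, in RPMI with 10% FBS, compound added as serial dilutions after 24 h of preculture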
Method: as §7, §8, §9

[7] = Microsomal stability (phase I), human; assay type: in vitro ADME; settings: human liver microsomes, up to 50 minutes, 37 °C
Method: as §1, §2, §3, §4

[8] = tested on: H1975 cells (EGFR-L858R/T790M); test: CellTiter-Glo viability assay, H1975
Method: as §7, §8, §9

[9] = tested on: H358 cells (KRAS mutant); test: CellTiter-Glo viability assay, H358; assay type: cell-based; settings: Homo sapiens, NCI-H358; H358, 96 hours, CellTiter-Glo; read-out: KRAS CTG EC50 H358;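 note: viable cell number estimated from ATP-dependent luminescence following exposure to serially diluted inhibitor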
Method: as §7, §8, §9

[10] = tested on: A431 cells (EGFR wild type); test: CellTiter-Glo viability assay, A431; settings: Homo sapiens, A-431, 96 h, read-out: EGFR CTG EC50 A431, A431, 96 hours, CellTiter-Glo
[11] = Plasma stability, human; assay type: in vitro ADME; settings: 5 µM, 1 h, 37 °C
[12] = Plasma protein binding, human; assay type: in vitro ADME; settings: equilibrium dialysis, 37 °C
Method: as §5, §6

[13] = target: EGFR-L858R (Homo sapiens, UniProt P00533, L858R); test: HTRF KinEASE-TK activity-based assay, EGFR-L858R
[14] = target: EGFR-L858R/T790M (Homo sapiens, UniProt P00533, L858R/T790M); test: HTRF KinEASE-TK activity-based assay, EGFR-L858R/T790M; settings: EGFR HTRF IC50 L858R/T790M, ATP at Km (4 µM), 30 min preincubation; mean ± SD of three independent measurements in duplicates
[15] = target: EGFR-wt (Homo sapiens, UniProt P00533); test: HTRF KinEASE-TK activity-based assay, EGFR-wt; settings: EGFR HTRF IC50 wt, ATP at Km (9.5 µM), 30 min preincubation; mean ± SD of three independent measurements in duplicates
[16] = Homo sapiens, NCI-H1975, 96 h, read-out: EGFR CTG EC50 H1975, H1975, 96 hours, CellTiter-Glo

Sequence of EGFR-wt (P00533 25-1210): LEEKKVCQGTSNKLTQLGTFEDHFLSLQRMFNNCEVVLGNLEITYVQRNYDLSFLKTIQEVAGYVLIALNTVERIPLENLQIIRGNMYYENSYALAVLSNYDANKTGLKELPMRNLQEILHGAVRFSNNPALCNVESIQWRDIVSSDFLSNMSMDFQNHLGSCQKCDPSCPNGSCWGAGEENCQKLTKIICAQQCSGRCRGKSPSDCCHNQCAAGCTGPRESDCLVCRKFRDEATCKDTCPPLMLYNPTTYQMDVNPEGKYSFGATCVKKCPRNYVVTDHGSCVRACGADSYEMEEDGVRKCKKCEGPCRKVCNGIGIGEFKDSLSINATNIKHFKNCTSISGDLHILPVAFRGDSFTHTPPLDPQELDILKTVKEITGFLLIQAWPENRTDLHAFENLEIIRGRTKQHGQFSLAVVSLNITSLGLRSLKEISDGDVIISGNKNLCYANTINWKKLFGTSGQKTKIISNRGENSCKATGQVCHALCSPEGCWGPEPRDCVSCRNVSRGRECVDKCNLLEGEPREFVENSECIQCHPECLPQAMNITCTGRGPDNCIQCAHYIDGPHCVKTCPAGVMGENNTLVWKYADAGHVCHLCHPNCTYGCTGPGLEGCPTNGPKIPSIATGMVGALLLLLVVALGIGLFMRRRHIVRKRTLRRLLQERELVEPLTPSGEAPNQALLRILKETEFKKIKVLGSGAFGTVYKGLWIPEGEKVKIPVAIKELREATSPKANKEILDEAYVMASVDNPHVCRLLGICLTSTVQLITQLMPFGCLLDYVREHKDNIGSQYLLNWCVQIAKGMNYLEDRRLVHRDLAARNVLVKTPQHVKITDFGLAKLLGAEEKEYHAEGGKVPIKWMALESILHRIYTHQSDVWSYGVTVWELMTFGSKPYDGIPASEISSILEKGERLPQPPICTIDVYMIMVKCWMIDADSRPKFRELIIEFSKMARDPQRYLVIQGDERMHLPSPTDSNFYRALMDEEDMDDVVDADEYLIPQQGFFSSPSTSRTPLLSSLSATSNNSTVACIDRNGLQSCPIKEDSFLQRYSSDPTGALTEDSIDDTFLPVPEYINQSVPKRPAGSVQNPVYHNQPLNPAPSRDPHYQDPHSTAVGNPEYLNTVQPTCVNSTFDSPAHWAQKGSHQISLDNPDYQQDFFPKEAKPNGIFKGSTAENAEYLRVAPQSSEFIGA
Sequence of EGFR-L858R (P00533 25-1210 L858R): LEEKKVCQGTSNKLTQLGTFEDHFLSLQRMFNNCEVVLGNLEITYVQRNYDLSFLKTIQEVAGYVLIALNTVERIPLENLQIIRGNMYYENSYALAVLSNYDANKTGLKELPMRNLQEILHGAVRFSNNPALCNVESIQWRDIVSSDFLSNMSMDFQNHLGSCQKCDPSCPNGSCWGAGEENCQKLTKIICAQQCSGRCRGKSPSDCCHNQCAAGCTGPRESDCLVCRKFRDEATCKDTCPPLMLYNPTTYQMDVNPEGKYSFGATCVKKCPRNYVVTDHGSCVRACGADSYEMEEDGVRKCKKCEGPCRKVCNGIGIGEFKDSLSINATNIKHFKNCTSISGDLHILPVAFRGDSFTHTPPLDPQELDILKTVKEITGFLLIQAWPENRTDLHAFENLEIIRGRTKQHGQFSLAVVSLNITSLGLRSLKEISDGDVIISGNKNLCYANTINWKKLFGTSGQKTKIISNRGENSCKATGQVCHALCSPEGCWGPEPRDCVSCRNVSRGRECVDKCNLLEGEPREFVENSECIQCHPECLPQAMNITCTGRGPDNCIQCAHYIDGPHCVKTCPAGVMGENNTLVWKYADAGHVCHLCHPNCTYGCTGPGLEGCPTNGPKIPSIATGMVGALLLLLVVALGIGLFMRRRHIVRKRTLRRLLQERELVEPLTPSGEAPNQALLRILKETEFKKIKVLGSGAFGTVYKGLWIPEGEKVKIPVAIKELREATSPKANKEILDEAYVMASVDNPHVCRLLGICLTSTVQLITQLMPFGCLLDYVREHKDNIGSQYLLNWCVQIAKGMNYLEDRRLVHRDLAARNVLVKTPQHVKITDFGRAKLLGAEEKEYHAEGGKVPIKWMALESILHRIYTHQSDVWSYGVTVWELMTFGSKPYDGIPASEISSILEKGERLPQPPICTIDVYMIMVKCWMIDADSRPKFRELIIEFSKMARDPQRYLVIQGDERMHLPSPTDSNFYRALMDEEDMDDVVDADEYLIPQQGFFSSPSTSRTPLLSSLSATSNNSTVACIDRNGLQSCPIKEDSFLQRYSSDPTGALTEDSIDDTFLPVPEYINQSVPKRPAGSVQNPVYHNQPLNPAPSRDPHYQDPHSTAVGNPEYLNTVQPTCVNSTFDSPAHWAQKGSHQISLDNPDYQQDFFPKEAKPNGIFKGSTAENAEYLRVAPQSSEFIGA
Sequence of EGFR-L858R/T790M (P00533 25-1210 T790M/L858R): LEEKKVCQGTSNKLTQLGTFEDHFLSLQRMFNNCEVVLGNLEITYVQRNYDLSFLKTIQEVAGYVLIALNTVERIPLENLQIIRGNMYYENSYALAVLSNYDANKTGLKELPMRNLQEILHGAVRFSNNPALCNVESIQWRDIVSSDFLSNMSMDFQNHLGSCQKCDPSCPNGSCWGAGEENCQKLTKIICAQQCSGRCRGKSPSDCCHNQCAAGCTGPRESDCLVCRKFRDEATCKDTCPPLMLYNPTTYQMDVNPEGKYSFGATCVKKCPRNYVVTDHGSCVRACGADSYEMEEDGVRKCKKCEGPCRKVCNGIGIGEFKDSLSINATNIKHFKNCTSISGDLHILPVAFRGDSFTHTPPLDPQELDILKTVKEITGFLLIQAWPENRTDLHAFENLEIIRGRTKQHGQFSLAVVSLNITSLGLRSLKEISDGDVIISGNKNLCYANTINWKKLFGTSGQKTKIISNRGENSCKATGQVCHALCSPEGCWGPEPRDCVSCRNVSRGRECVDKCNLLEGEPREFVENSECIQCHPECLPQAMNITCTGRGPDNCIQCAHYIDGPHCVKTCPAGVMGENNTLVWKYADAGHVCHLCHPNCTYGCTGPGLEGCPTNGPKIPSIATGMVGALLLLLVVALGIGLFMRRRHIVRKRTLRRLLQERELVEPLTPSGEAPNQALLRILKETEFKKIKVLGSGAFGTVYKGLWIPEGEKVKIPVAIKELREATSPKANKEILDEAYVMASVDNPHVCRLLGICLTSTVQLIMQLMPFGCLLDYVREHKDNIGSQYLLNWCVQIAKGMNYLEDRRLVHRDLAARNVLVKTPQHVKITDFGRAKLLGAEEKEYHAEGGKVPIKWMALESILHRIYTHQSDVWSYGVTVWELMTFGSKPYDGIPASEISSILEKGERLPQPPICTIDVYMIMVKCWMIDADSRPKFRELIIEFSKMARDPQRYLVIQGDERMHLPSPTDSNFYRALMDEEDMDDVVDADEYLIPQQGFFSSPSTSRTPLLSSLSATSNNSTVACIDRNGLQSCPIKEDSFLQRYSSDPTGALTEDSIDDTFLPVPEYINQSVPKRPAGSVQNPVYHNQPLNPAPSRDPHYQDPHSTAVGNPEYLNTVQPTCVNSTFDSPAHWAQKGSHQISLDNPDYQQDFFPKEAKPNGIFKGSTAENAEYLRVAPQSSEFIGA

Compound	microsomal CLint at 3 µM [1]	Papp A→B at 2 h, 5 μM ([2]; apical to basolateral, read-out: Caco-2: Papp AB)	Papp B→A at 2 h, 5 μM ([2]; basolateral to apical, read-out: Caco-2: Papp BA)	Plasma stability [3]	EC50 [4]	fraction unbound at 6 h, 5 µM [5]	EC50 [6]	microsomal CLint at 3 µM [7]	EC50 [8, 16]	EC50 [9]	EC50 [10]	Plasma stability [11]	fraction unbound at 6 h, 5 µM [12]	IC50 [13]	EC50 ([8]; Homo sapiens, NCI-H1975, read-out: EC50 / potency in H1975 cells, H1975, rounded value in running text)	IC50 [14]	IC50 [15]	EC50 ([8]; read-out: EGFR CTG EC50 H1975, H1975, 96 hours, CellTiter-Glo)
C=CC(=O)Nc1cccc(Oc2nc(Nc3ccc(N4CCN(C)CC4)cc3OC)ncc2Cl)c1 [WZ4002, reference compound]	66 µL/min/mg	4.9 ×10⁻⁶ cm/s	11.7 ×10⁻⁶ cm/s	78 %remain	4000 ± 545 nM	0.019	20 ± 6 nM	11 µL/min/mg	97 ± 37 nM	4390 ± 512 nM	2140 ± 439 nM	86 %remain	0.008					
C=CC(=O)Nc1cccc(-c2c(-c3ccc(C)cc3)[nH]c3ncnc(OC)c23)c1 [Compound 10a]	118 µL/min/mg				10200 ± 504 nM		151 ± 10 nM		2040 ± 88 nM	14200 ± 678 nM	9860 ± 4250 nM			93 ± 54 nM	~2000 nM	< 200 nM and 175 nM	200 ± 148 nM	
C=CC(=O)Nc1cccc(-c2c(-c3ccc(N4CCN(C)CC4)cc3)[nH]c3ncnc(OCCCC)c23)c1 [Compound 19d]	50 µL/min/mg				1130 ± 176 nM		< 14 nM		64 ± 8 nM	1640 ± 813 nM	1530 ± 273 nM			< 0.1 nM		< 0.1 nM	< 0.1 nM	
C=CC(=O)Nc1cccc(-c2c(-c3ccc(N4CCN(C)CC4)cc3)[nH]c3ncn(C4CCCCC4)c(=O)c23)c1 [Compound 29j]	30 µL/min/mg				6050 ± 4600 nM		< 14 nM		77 ± 15 nM	6270 ± 1270 nM	1120 ± 656 nM			0.2 ± 0.1 nM		0.4 ± 0.1 nM	0.4 ± 0.1 nM	
C=CC(=O)Nc1cccc(-c2c(-c3ccc(N4CCN(C)CC4)cc3)[nH]c3ncn(CC)c(=O)c23)c1 [Compound 29b]	4 µL/min/mg				4300 ± 1250 nM		15 ± 1 nM		< 200 nM	3470 ± 2010 nM	739 ± 287 nM			0.2 ± 0.1 nM		0.5 nM	0.4 ± 0.2 nM	144 ± 41 nM
C=CC(=O)Nc1cccc(-c2c(-c3ccc(N4CCN(C)CC4)cc3)[nH]c3ncnc(OC(C)C)c23)c1 [Compound 19g]	46 µL/min/mg				1800 ± 131 nM		< 14 nM		38 ± 19 nM	2700 ± 758 nM	334 ± 50 nM			< 0.1 nM		0.1 nM	0.1 nM	
COc1ncnc2[nH]c(-c3ccc(C)cc3)c(-c3cccc(NC(=O)C=CCN(C)C)c3)c12 [Compound 10b]	26 µL/min/mg				7060 ± 3230 nM		282 ± 29 nM		980 ± 136 nM	10700 ± 3520 nM	2430 ± 991 nM			34 ± 11 nM		26 ± 8 nM	60 ± 18 nM	
